According to PubChem BioAssay (NCI):
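Five compound concentrations were applied to cells in 96-well plates for 48 hours; endpoints were derived by simple linear interpolation of the resulting dose-response curve. The concentration for 50% growth inhibition is given as GI50. TGI denotes the concentration required for complete inhibition of growth.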

Columns and labels:
Test in all cases: DTP human tumour cell line panel, 48 h
[1] = tested on: PC-3 prostate
[2] = tested on: MDA-MB-231 breast
[3] = tested on: NCI-H226 lung
[4] = tested on: OVCAR-4 ovarian
[5] = tested on: A549 NSCLC
[6] = tested on: OVCAR-3 ovarian
[7] = tested on: UO-31 renal
[8] = tested on: SW-620 colon
[9] = tested on: MDA-MB-435
[10] = tested on: U251 CNS
[11] = tested on: SK-MEL-28 melanoma
[12] = tested on: HCT-15 colon
[13] = tested on: SK-MEL-5 melanoma
[14] = tested on: SK-OV-3 ovarian
[15] = tested on: SNB-19 CNS
[16] = tested on: 786-0 renal
[17] = tested on: NCI-H522 lung
[18] = tested on: SF-539 CNS
[19] = tested on: OVCAR-5 ovarian
[20] = tested on: SNB-75 CNS
[21] = tested on: SF-295 CNS
[22] = tested on: RXF 393 renal
[23] = tested on: SK-MEL-2 melanoma
[24] = tested on: MCF7 breast
[25] = tested on: HOP-62 NSCLC
[26] = tested on: HCC-2998 colon
[27] = tested on: T-47D breast
[28] = tested on: DU-145 prostate
[29] = tested on: OVCAR-8 ovarian
[30] = tested on: UACC-62 melanoma
[31] = tested on: HCT-116 colon
[32] = tested on: HT29 colon
[33] = tested on: CAKI-1 renal
[34] = tested on: EKVX NSCLC
[35] = tested on: A498 renal
[36] = tested on: NCI-H460 lung
[37] = tested on: UACC-257 melanoma
[38] = tested on: SN12C renal
[39] = tested on: BT-549 breast
[40] = tested on: HOP-92 NSCLC
[41] = tested on: HS 578T breast
[42] = tested on: IGROV1 ovarian
[43] = tested on: MOLT-4 leukemia
[44] = tested on: K-562 leukemia
[45] = tested on: NCI-H23 lung
[46] = tested on: MALME-3M melanoma
[47] = tested on: ACHN renal
[48] = tested on: KM12 colon
[49] = tested on: M14 melanoma
[50] = tested on: SF-268 CNS
[51] = tested on: TK-10 renal
[52] = tested on: NCI/ADR-RES ovarian

C=C(C)[C@@H]1CC[C@]2(C(=O)O)CC[C@]3(C)[C@H](CC[C@@H]4[C@@]5(C)C/C(=C/c6ccc(OC)cc6)C(=O)C(C)(C)[C@@H]5CC[C@]43C)[C@@H]12
GI50 [1]: 1.74 µM
TGI [1]: 8.24 µM
GI50 [2]: 2.32 µM
TGI [2]: 7.78 µM
GI50 [3]: 1.85 µM
TGI [3]: 4.3 µM
GI50 [4]: 2.5 µM
TGI [4]: 11.2 µM
GI50 [5]: 1.3 µM
TGI [5]: 4.56 µM
GI50 [6]: 1.69 µM
TGI [6]: 3.23 µM
GI50 [7]: 1.45 µM
TGI [7]: 4.42 µM
GI50 [8]: 1.95 µM
TGI [8]: 4.61 µM
GI50 [9]: 1.84 µM
TGI [9]: 4.02 µM
GI50 [10]: 1.86 µM
TGI [10]: 5.68 µM
GI50 [11]: 1.91 µM
TGI [11]: 3.72 µM
GI50 [12]: 1.79 µM
TGI [12]: 4.4 µM
GI50 [13]: 2.03 µM
TGI [13]: 4.12 µM
GI50 [14]: 3.29 µM
TGI [14]: 16.1 µM
GI50 [15]: 3.07 µM
TGI [15]: 17 µM
GI50 [16]: 2.83 µM
TGI [16]: 12.1 µM
GI50 [17]: 1.97 µM
TGI [17]: 6.65 µM
GI50 [18]: 1.94 µM
TGI [18]: 4.16 µM
GI50 [19]: 3.2 µM
TGI [19]: 12 µM
GI50 [20]: 2.68 µM
TGI [20]: 27.1 µM
GI50 [21]: 1.71 µM
TGI [21]: 4.45 µM
GI50 [22]: 2.1 µM
TGI [22]: 5.26 µM
GI50 [23]: 2.38 µM
TGI [23]: 6.29 µM
GI50 [24]: 2.59 µM
TGI [24]: 7.74 µM
GI50 [25]: 2.24 µM
TGI [25]: 7.51 µM
GI50 [26]: 2.1 µM
TGI [26]: 5.73 µM
GI50 [27]: 2.84 µM
TGI [27]: 26.7 µM
GI50 [28]: 3.09 µM
TGI [28]: 15.3 µM
GI50 [29]: 3.16 µM
TGI [29]: 33.1 µM
GI50 [30]: 1.44 µM
TGI [30]: 3.13 µM
GI50 [31]: 1.62 µM
TGI [31]: 3.82 µM
GI50 [32]: 3.09 µM
TGI [32]: 10.2 µM
GI50 [33]: 2.16 µM
TGI [33]: 11.5 µM
GI50 [34]: 2.36 µM
TGI [34]: 10.5 µM
GI50 [35]: 2.28 µM
TGI [35]: 8.47 µM
GI50 [36]: 1.82 µM
TGI [36]: 3.92 µM
GI50 [37]: 2.1 µM
TGI [37]: 6.93 µM
GI50 [38]: 2.07 µM
TGI [38]: 5.9 µM
GI50 [39]: 1.89 µM
TGI [39]: 4.34 µM
GI50 [40]: 0.738 µM
TGI [40]: 3.36 µM
GI50 [41]: 2.65 µM
TGI [41]: 9.03 µM
GI50 [42]: 2.15 µM
TGI [42]: 7.3 µM
GI50 [43]: 2.97 µM
TGI [43]: > 100 µM
GI50 [44]: 2.21 µM
TGI [44]: > 100 µM
GI50 [45]: 2.44 µM
TGI [45]: 8.25 µM
GI50 [46]: 1.84 µM
TGI [46]: 4.29 µM
GI50 [47]: 2.77 µM
TGI [47]: 10.5 µM
GI50 [48]: 1.71 µM
TGI [48]: 4.12 µM
GI50 [49]: 1.67 µM
TGI [49]: 3.9 µM
GI50 [50]: 2.85 µM
TGI [50]: 17.4 µM
GI50 [51]: 2.6 µM
TGI [51]: 20.7 µM
GI50 [52]: 2.84 µM
TGI [52]: 13.3 µM
